Data set [1] relates to AChE preparation (sodium channel neuroreceptor). Put plainly: Circular dichroism bioassay at 222 nm: temperature-dependent helix-coil transition of the AChE/neuroreceptor preparation in presence of drug. It counts as binding, bovine. The following applies: for molar ellipticity [θ] at 222 nm, 30° C. / molar ellipticity [θ] at 222 nm, 35° C. / molar ellipticity [θ] at 222 nm, 38° C. / stabilization of the alpha helix / prevention of the helical transition between 30° C. and 35° C.: pH 7.0; for stabilization of the alpha helix / prevention of the helical transition between 30° C. and 35° C.: fresh preparations; for temperature needed to elicit the helix-coil transition in presence of drug: versus preparation without drug. How it is done: (§1) A baseline of the solution is obtained using 222 nm without removing the cell after a run is begun to allow for thermal stabilization. Prior to adding the drug to the enzyme, a blank run consisting only of the drug at the same concentration used in the enzyme study is made. To obtain control data, temperature changes of 5 degrees centigrade in the neuroreceptor solution alone are made using a Forma water bath. Then the drug is added to a sample of the purified neuroreceptor solution, and the stabilizing effect of the drug on the temperature-related conformational changes is noted. All temperature runs are allowed to equilibrate for one hour before data is collected.
All studies are made in 1 mm, 5 mm and 2 mm cells using a Jouan Dichrograph II at 1×10^-5 O.D./mm sensitivity. The sample solution consists of 30 mM Na2 HPO4, pH 7.0, and the enzyme. Protein concentration is determined empirically and then measured by the Lowry method after the run. Lowry, et al., J Biol Chem, 193: 265-275 (1951). Samples are taken directly from G-200 fractions or DEAE-Cellulose fractions previously dialyzed against 30 mM Na2 HPO4, pH 7.0.
Thermal studies are carried out in the 10 mm cell. Care must be taken not to misplace the cell in the cell holder to avoid spectral changes. Additionally, since the absorption is affected by pressure, the ORD cell's glass stopper must be gently seated. for the thermal runs of Prep A, a micro-thermometer is used to record the temperature in the ORD cell after each spectral recording.
The routine consists of beginning a CD spectral scan followed by running each activity blank at that temperature using 3 minute reading intervals. The next CD spectral scan is made after recording the temperature in the ORD cell. The data recorded consists of duplicates of CD spectra with cell temperatures varying 5 degrees centigrade at 222 nm.
Pilocarpine, reagent grade, was used at 1.33×10^-6 M in the sample solutions.
A buffer solution of 20 mM Na2 HPO4, pH 7.0, gives minimal absorption problems in the range 300 nm to 195 nm. Enzyme solutions contain from 21 μg/ml to 31 μ/ml of protein in buffer. Total ORD cell volume is 3.0 ml.
A buffer solution of 30 Na2 HPO4, pH 7.0,gave minimal absorption problems in the range 300 nm to 195 nm. Enzyme solutions contained from 21 μg/ml to 31 μg/ml of protein in buffer. Total ORD cell volume was 3.0 ml. Drugs were added to ORD cells in 0.002 ml volumes in order to minimize dilution effects. A Roussel-Jouan Dichrograph 11 sensitive to 1×10^-5 dichroic absorption unit per recording mm was used with a 10 mm, strain free, quartz ORD cell (Pyrocell, New Jersey, U.S.A.).
(§2) Again CD spectra were obtained using the above thermal apparatus over the range of 230 nm to 215 nm. A baseline of the enzyme solution was obtained using 300 nm to 285 nm without removing the cell after a run was begun. Prior to adding the drug to the enzyme, a blank run consisting only of the drug at the same concentration used in the enzyme study was made. To obtain control data, temperature changes in the enzyme solution alone were made using a Forma water bath. Then the drug was added to another enzyme solution with the same protein concentration which came from the stock solution, and temperature effects were noted. All temperature runs were allowed to equilibrate for one hour before data were collected.
Data for CD was expressed so that experimental values could be compared with published helix composition values. All graphs and raw data were expressed as molar el lipticity [.THETA.] based on mean residue molecular weight because the true molecular weight of AChE has not been established for the brain enzyme.

The nature of data set [2]: Circular dichroism blank run of the drug alone. The format is physicochemical. The following applies: for ellipticity of drug alone: 215 nm to 230 nm / 222 nm; for molar ellipticity [θ] of drug alone, 30° C.: no enzyme, 222 nm. How it is done: as §1, §2
The conditions of data set [3]: cited from earlier work.
For data set [4] the following is noted: local anesthesia; cited from earlier work.
For data set [5] the following is noted: mice; cited from earlier work.
For data set [6] the following is noted: rats; cited from earlier work.
Another data set concerns the target AChE (Bos taurus, UniProt P23795). Put plainly: Salt study: effect of MgSO4 on AChE of Prep E (AChE activity and CD helix). It counts as biochemical, bovine. Here is the method:
An AChE preparation (Prep E) was made using the scheme of S. L. Chan, supra "Purification of Beef Brain Acetylcholinesterase" Proceedings of the Western Pharmacology Society, 13:43-47, 1970. The AChE in 0.4M NaCl/[…] Na2 HPO4 was lyophilized and resuspended in 2.5 ml deionized water. The CD spectrum was made, and activity was checked qualitatively. The sample was dialyzed against 100 mM MgSO4 for 12 hours. AChE activity was qualitatively checked with CD. The sample was then redialyzed against 0.4M NaCl/30 mM Na2 HPO4 for 12 hours, checked for AChE activity and for CD absorption.
Activity of AChE was determined at 25° C.-30° C. and pH 8.0 by the spectrophotometric method of Ellman et al (Biochemical Pharmacology, 7:88-95 (1961). Measurements were made in the Hitachi Perkin-Elmer Model 139 spectrophotometer at 412 nm and 0.1 nm slit. One unit of AChE activity was defined as 1 μM of ATC (acetyl thiocholine iodide,Sigma) hydrolyzed per hour at 25° C. Specific activity is expressed as μmoles ATC hydrolyzed/ mg protein/ hour.

Setting [7] is: 7 Day old AChE with drug, 222 nm.
Where [8] appears, read: AChE Prep B (7 Days Later) plus drug 1.33×10^-6 M, 222 nm.
Where [9] appears, read: AChE Prep B (7 Days Later) plus drug 1.33×10^-6 M.
The mark [10] stands for this setting: Fresh AChE (Prep B) plus drug 1.33×10^-6 M.
Where [11] appears, read: Fresh AChE (Prep C) plus drug 1.33×10^-6 M, 222 nm.
Setting [12] is: Fresh AChE (Prep C) plus drug 1.33×10^-6 M.
The mark [13] stands for this setting: AChE Prep B (7 Days Later), 222 nm.

Results on ten compounds are retold here after patent US5780242A, “Bioassay for the screening of ION channel active molecules” (priority 1995, dated 1998).

SMILES strings stand for the structures. Entries after “also recorded” stand apart in the source; their conditions may differ. Structures can show the parent of a compound that is named as a salt. Where two headings read alike, the source gives them in different places.

Chain of AChE (P23795 31-613): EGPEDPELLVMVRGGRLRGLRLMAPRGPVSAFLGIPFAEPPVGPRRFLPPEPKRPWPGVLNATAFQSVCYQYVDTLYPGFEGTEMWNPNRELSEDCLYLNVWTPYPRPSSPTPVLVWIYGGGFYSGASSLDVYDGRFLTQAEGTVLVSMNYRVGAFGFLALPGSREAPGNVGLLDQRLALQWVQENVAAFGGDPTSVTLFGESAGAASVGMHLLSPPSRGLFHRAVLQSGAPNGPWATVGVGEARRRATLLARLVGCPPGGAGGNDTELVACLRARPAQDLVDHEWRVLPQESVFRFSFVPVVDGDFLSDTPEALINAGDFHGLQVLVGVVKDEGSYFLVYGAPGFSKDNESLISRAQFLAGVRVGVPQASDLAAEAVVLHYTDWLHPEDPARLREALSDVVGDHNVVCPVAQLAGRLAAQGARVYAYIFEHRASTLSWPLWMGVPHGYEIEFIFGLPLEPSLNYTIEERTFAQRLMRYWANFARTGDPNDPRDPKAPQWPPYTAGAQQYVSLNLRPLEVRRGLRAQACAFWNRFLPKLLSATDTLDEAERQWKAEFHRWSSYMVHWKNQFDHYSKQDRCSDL

For the compound `CC[C@@H]1C(=O)OC[C@@H]1Cc1cncn1C` [Pilocarpine], the “% Loss of Helix (30° C. to 35° C.)” value in data set [1] (setting [7]) came out at 20.7%; in data set [1] (Fresh AChE with drug, 222 nm) it was 7.1%. The “[θ]30 - [θ]35” value in data set [1] (setting [8]) stood at 720; in data set [1] (Fresh AChE (Prep B) plus drug 1.33×10^-6 M, 222 nm) it was 800; in data set [1] (setting [11]), 170. The “molar ellipticity [θ] at 222 nm, 30° C.” value in data set [1] (setting [9]) was -3,590; in data set [1] (setting [10]), -11,300; in data set [1] (setting [12]), -4,490. Also, the figures for the “molar ellipticity [θ] at 222 nm, 35° C.” value in data set [1] (setting [9]), in data set [1] (setting [10]) and in data set [1] (setting [12]) were -2,280, -10,500 and -4,320, respectively. For the same compound, the “[θ]38 - [θ]35” value in data set [1] (setting [11]) came out at 780. Besides, the “molar ellipticity [θ] at 222 nm, 38° C.” value in data set [1] (setting [12]) is listed as -3,540. In data set [1] (Fresh AChE with drug, 222 nm), the “% Loss of Helix (35° C. to 40° C.)” value is given as 17.5%. Besides, in data set [1] (enzyme preparations more than one week old / not freshly prepared), the “stabilization of helix in preparations not freshly prepared” value is listed as “not observed; also recorded: will not be protected”. For the same compound, the “stabilization of the alpha helix / prevention of the helical transition between 30° C. and 35° C.” value in data set [1] (222 nm) is “appear to stabilize the helix”; in data set [1] (222 nm, listed as pilocarpine), “prevent the helical transition”. The “temperature needed to elicit the helix-coil transition in presence of drug” value in data set [1] is reported as “Higher temperatures were necessary”. Besides, in data set [2], the “ellipticity of drug alone” value is recorded as “positive ellipticity”. In data set [2], the “molar ellipticity [θ] of drug alone, 30° C.” value is listed as “+5,450”.
As to `CN1CCCC1c1cccnc1` (stereo not drawn) [Nicotine], the “molar ellipticity [θ] of drug alone, 30° C.” value in data set [2] is reported as -21,400.
For `CCN(CC)CC(=O)Nc1c(C)cccc1C` [Lidocaine, Lidocaine hydrochloride monohydrate], the “% Loss of Helix (30° C. to 35° C.)” value in data set [1] (setting [7]) is given as 16.8%. For the same compound, in data set [1] (setting [8]), the “[θ]30 - [θ]35” value turned out to be 600. The “molar ellipticity [θ] at 222 nm, 30° C.” value in data set [1] (setting [9]) is recorded as -3,590. For the same compound, in data set [1] (setting [13]), the “Difference of Lidocaine from Above AChE, 30° C.” value is “+540” and the “Difference of Lidocaine from Above AChE, 35° C.” value was “+480”. Moreover, in data set [1] (setting [11]), the “[θ]30 - [θ]35” value is reported as 100 and the “[θ]38 - [θ]35” value was 770. Besides, in data set [1] (setting [12]), the “molar ellipticity [θ] at 222 nm, 30° C.” value is listed as -5,560; the “molar ellipticity [θ] at 222 nm, 35° C.” value is on record as -5,500; the “molar ellipticity [θ] at 222 nm, 38° C.” value was -4,830. Further, in data set [1] (Fresh AChE with drug, 222 nm), the “% Loss of Helix (30° C. to 35° C.)” value worked out at 1.8% and the “% Loss of Helix (35° C. to 40° C.)” value is recorded as 13.6%. In addition, the “temperature needed to elicit the helix-coil transition in presence of drug” value in data set [1] is recorded as “Higher temperatures were necessary”. The allergic reactions result in data set [3] (compared with procaine) was “fewer known allergic reactions than procaine”. For the same compound, the side effect entry in data set [3] (in vivo) is listed as “drowsiness”. Further, the “duration of effective action” value in data set [4] is 1 to 2 h. Besides, the “ellipticity of drug alone” value in data set [2] is listed as “no ellipticity”.
Take `CCCN(CC)C(CC)C(=O)Nc1c(C)cccc1C` (stereo not drawn) [etidocaine]: in data set [4], the “duration of effective action” value is 4 to 18 h.
As to `Cc1cccc(C)c1NC(=O)C1CCCCN1C` (stereo not drawn) [mepivacaine], in data set [4], the “duration of effective action” value is 2 to 3 h and the onset of action entry was “rapid”.
Consider `CCN(CC)CCOC(=O)c1ccc(N)cc1` [procaine], for which the “duration of effective action” value in data set [4] was 1 to 2 h.
For `Cc1ccccc1N` [ortho-toliudine], the carcinogenicity entry in data set [5] and in data set [6] was “carcinogenic” in each case.
Turning to `CCCCN1CCCCC1C(=O)Nc1c(C)cccc1C` (stereo not drawn) [bupivacaine], the “duration of effective action” value in data set [4] was 4 to 18 h.
As to `CCCNC(C)C(=O)Nc1ccccc1C` (stereo not drawn) [prilocaine], the side effect result is reported as “methemoglobinemia” in data set [3] (doses greater than 400 mg) and “drowsiness” in data set [3] (in vivo). Moreover, the “duration of effective action” value in data set [4] is 2 to 3 h.
As for `O=S(=O)([O-])[O-].[Mg+2]` [MgSO4], at AChE (AChE Prep E in 100 mM MgSO4, CD), the “random coil at 195 nm” value is 35%. The “AChE Qualitative Activity” value on AChE (Prep E dialyzed against 100 mM MgSO4 for 12 hours) was 0. For the same compound, at AChE (Prep E dialyzed against 100 mM MgSO4 for 12 hours, CD), the “Helix 220 nm” value was 16 mm.
